From PMC12557380, “Optimization of 2,8-Diaryl-1,5-naphthyridines as Plasmodium falciparum Phosphatidylinositol 4‑Kinase Inhibitors with Improved ADME Profiles and In Vivo Efficacy” (Journal of Medicinal Chemistry, 2025)
pIC50: −log10 of the molar value. Values after ≈ are worked out from the molar mass of the structure shown. Where two headings read alike, the source gives them in different places.

What was measured:
PfDd2 = settings: read-out: PfDd2 IC50; reported inhibitors, Figure 1; cited from earlier work
[1] = tested on: panel of the drug-resistant strains of P. falciparum; settings: Figure 1, read-out: PfIC50; cited from earlier work
P. vivax PI4Kβ (PvPI4K) = settings: cited from earlier work
HsPI4K = settings: reported inhibitors, Figure 1; cited from earlier work
HepG2 cells = experiment: Cytotoxicity, MTT assay, HepG2; assay type: cell-based
[2] = tested on: P. falciparum K1 (PfK1) strain; experiment: In vitro antiplasmodial asexual blood stage activity, pLDH assay, K1; assay type: cell-based; settings: Plasmodium falciparum
[3] = tested on: P. falciparum NF54 (PfNF54) parasites; experiment: In vitro antiplasmodial asexual blood stage activity, pLDH assay, NF54; assay type: cell-based, Plasmodium falciparum; settings: Plasmodium falciparum
Pf3D7 = settings: read-out: Pf3D7 IC50; cited from earlier work
[4] = tested on: Chinese hamster ovary cells; experiment: Cytotoxicity, MTT assay, CHO; assay type: cell-based; settings: Cricetulus griseus, read-out: CHO IC50
[5] = tested on: L6 rat myoblast cell line; experiment: Cytotoxicity, L6; assay type: cell-based; settings: read-out: L6 IC50
PfNF54 = settings: cited from earlier work
physchem [6] = settings: n-octanol/phosphate buffer (1:1), pH 7.4
[7] = tested on: P. falciparum PI4K cKD line; experiment: microbe, parasite or virus in culture; settings: Plasmodium falciparum
physchem [8] = settings: 25 °C, pH 6.5, aqueous buffer, thermodynamic from solid
in vitro [9] = settings: mouse, pH 7.4
in vivo = settings: male, Balb/C, mouse, po, 10 mg/kg
[10] = for in vivo mouse CLb: total body clearance from whole blood, iv 3 mg/kg; for in vivo mouse CLu: unbound blood clearance from CLb and plasma protein binding
in vitro [11] = settings: human, Caco-2
in vitro [12] = settings: human, pH 7.4
HsPI4Kβ = HsPI4Kβ (Homo sapiens, UniProt Q9UBF8); experiment: Human lipid kinase screening, ADP-Glo, PI4Kβ; assay type: biochemical; settings: IC50/PvPI4K IC50
Chain of HsPI4Kβ (Q9UBF8 whole entry): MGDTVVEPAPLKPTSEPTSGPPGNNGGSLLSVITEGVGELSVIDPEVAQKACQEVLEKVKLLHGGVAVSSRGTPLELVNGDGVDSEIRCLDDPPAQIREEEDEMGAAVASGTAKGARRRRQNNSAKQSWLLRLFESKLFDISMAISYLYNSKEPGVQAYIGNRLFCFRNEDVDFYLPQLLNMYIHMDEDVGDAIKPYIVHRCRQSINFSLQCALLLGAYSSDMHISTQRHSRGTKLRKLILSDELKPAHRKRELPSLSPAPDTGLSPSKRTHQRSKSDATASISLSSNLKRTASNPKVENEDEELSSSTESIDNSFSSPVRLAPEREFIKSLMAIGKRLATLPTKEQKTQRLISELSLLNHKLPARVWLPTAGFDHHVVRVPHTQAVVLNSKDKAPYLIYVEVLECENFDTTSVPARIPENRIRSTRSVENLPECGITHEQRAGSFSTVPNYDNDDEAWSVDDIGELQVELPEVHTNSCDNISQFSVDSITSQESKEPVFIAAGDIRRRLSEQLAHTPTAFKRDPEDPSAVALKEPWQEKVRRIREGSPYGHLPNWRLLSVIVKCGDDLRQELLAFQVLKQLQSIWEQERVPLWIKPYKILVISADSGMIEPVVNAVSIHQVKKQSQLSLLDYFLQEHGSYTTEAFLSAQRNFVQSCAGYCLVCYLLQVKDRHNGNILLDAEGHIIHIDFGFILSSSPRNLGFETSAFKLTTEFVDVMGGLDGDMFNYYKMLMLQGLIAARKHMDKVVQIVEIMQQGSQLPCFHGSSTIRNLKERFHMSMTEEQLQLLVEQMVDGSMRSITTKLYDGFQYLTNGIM

HsMINK1 = HsMINK1 (Homo sapiens, UniProt Q8N4C8); experiment: Human kinase screening, ADP-Glo, MINK1; assay type: biochemical; settings: IC50/PvPI4K IC50
HsPI3Kα = HsPI3Kα (Homo sapiens, UniProt P42336); experiment: Human lipid kinase screening, ADP-Glo, PI3Kα; assay type: biochemical; settings: IC50/PvPI4K IC50
Chain of HsPI3Kα (P42336 whole entry): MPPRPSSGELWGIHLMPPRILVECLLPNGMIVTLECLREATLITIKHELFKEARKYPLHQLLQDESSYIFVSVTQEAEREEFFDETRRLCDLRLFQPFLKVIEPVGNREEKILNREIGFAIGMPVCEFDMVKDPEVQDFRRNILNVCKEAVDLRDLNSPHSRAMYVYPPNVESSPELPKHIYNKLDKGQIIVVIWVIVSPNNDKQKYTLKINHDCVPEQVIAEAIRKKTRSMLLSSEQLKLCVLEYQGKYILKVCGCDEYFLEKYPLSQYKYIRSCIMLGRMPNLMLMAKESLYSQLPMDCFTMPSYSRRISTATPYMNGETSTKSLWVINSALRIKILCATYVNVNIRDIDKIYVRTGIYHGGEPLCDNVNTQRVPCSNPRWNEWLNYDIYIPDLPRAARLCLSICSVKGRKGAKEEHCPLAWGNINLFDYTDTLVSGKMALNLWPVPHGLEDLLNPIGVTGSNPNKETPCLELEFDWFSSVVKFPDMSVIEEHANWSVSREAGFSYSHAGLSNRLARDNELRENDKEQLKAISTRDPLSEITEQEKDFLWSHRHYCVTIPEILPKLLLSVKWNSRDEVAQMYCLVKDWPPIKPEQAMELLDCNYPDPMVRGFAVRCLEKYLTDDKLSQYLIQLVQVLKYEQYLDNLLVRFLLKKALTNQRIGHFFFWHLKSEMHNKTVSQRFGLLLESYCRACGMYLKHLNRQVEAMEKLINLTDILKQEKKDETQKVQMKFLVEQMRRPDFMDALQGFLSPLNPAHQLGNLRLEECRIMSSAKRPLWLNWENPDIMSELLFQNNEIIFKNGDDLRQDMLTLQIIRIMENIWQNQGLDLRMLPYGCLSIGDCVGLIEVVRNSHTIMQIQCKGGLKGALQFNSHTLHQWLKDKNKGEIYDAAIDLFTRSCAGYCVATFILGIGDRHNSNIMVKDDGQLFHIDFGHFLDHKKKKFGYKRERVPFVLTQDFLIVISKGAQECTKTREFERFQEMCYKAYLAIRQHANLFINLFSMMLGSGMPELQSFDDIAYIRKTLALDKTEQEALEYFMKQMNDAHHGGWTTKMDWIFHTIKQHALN
Chain of HsPI3Kα (P27986 whole entry partner): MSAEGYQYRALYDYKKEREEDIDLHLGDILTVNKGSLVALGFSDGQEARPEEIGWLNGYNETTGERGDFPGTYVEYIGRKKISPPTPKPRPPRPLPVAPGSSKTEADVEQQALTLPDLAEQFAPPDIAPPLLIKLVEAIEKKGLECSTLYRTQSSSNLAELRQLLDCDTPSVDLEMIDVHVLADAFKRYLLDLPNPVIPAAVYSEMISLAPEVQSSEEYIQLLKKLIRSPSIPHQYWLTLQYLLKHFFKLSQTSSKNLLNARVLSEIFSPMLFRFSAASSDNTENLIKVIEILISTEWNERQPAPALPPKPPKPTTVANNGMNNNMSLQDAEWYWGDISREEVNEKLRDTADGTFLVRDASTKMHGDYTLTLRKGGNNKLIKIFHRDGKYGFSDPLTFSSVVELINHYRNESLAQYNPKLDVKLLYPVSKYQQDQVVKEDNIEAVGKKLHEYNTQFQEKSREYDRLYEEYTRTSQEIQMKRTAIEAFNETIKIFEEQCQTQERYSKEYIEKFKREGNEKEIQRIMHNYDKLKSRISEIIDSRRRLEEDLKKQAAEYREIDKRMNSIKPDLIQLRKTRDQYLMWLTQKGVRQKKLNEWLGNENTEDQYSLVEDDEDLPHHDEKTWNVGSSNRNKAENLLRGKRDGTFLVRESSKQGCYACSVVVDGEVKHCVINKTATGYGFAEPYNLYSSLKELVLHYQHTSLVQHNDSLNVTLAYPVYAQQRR

HsMAP4K4 = HsMAP4K4 (Homo sapiens, UniProt O95819); experiment: Human kinase screening, ADP-Glo, MAP4K4; assay type: biochemical; settings: IC50/PvPI4K IC50
Chain of HsMAP4K4 (O95819 whole entry): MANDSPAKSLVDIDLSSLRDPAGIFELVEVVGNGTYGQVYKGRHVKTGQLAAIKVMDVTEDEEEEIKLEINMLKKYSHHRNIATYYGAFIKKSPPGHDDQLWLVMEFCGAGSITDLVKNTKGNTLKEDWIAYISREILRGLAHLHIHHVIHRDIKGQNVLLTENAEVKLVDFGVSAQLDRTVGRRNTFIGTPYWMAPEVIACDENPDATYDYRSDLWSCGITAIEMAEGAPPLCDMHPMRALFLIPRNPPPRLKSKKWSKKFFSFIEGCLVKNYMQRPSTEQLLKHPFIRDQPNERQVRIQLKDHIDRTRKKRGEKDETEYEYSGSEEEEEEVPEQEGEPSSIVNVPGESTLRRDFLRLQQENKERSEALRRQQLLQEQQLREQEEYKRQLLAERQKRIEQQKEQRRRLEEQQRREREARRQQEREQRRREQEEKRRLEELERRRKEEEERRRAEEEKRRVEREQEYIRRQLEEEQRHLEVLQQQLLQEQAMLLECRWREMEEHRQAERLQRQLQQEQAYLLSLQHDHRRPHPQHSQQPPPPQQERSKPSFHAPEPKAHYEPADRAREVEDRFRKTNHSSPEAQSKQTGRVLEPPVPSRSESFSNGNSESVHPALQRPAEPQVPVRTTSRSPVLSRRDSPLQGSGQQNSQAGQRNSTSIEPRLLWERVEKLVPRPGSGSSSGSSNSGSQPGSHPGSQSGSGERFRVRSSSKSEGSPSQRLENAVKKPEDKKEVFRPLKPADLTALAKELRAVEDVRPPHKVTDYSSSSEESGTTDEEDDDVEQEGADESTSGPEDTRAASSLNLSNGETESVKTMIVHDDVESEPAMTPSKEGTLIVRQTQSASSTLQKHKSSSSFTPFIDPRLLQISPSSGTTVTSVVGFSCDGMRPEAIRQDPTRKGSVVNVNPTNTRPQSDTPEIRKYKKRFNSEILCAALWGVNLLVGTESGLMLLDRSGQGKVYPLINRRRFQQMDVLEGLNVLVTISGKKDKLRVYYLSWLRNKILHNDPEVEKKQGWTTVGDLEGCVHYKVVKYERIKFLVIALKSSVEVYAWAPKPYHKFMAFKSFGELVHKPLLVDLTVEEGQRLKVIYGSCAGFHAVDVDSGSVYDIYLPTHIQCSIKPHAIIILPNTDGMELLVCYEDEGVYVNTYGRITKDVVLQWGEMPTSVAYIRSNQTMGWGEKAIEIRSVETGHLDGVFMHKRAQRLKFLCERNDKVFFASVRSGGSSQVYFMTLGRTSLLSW

[13] = tested on: PI4K S743F + H1484Y and PI4K S1320L + L1418F mutant lines; settings: 72 h, SYBR green I
[14] = Homo sapiens, HepG2, read-out: HepG2 IC50
[15] = K1, 72 h, read-out: Pf ABS IC50 K1
[16] = NF54, 72 h, read-out: Pf ABS IC50 NF54
[17] = read-out: IC50 Mean + SD, +aTc, mean of N=3, +aTc
[18] = read-out: IC50 Mean + SD, no aTc, mean of N=3, no aTc
[19] = read-out: IC50 for PfPI4K, +aTc, N=1, +aTc
[20] = read-out: IC50 for PfPI4K, +aTc, N=2, +aTc
[21] = read-out: IC50 for PfPI4K, +aTc, N=3, +aTc
[22] = read-out: IC50 for PfPI4K, no aTc, N=1, no aTc (knockdown)
[23] = read-out: IC50 for PfPI4K, no aTc, N=2, no aTc (knockdown)
[24] = read-out: IC50 for PfPI4K, no aTc, N=3, no aTc (knockdown)
[25] = NF54, 72 h, pLDH assay, 72 h, read-out: Pf ABS IC50 NF54
[26] = NF54, mean, supplement, read-out: PfNF54 IC50

## COc1ccc2c3c([nH]c2c1)[C@H](CO)N(C(C)=O)CC31CCN(C(=O)Nc2ccccc2F)CC1 [BRD73842]
PfDd2
  pIC50: 7.16

## CNC(=O)c1cncc(-c2cnc(Cl)c(NS(=O)(=O)c3ccccc3)c2)c1 [CHMFL-PI4K-127, 6′-Chloro-N-Methyl-5′-(Phenylsulfonamido)-[3,3′-Bipyridine]-5-Carboxamide]
[1]
  pIC50: 7.33 to 7.62
P. vivax PI4Kβ (PvPI4K); reported inhibitors, Figure 1
  pIC50: 9.05
HsPI4K
  pIC50: 6.37

## NS(=O)(=O)c1cccc(-c2ccc3nccc(-c4ccnc(C(F)(F)F)c4)c3n2)c1 [Compound 1]
HepG2 cells; [14]
  pIC50: 4.32
[2]; [15]
  pIC50: 7.07
[3]; [16]
  pIC50: 7.20
P. vivax PI4Kβ (PvPI4K)
  pIC50: 8.22
Pf3D7
  pIC50: 6.85
[4]
  pIC50: 5.22
[5]
  pIC50: 4.46
PfNF54
  pIC50: 7.20

## Cn1ccc(-c2ccc3nccc(-c4cccc(S(C)(=O)=O)c4)c3n2)cc1=O [Compound 19, 1-Methyl-4-[8-(3-methylsulfonylphenyl)-1,5-naphthyridin-2-yl]pyridin-2-one]
Physchem [6]
  logD at 3 h: 1.46
[7]; [17]
  pIC50: 7.44
[7]; [18]
  pIC50: 8.37
[7]; [19]
  pIC50: 7.31
[7]; [20]
  pIC50: 7.69
[7]; [21]
  pIC50: 7.41
[7]; [22]
  pIC50: 8.28
[7]; [23]
  pIC50: 8.60
[7]; [24]
  pIC50: 8.29
Physchem [8]
  solubility thermodynamic at 20 h: 40 µM (≈ 15.7 µg/mL)
In vitro [9]; microsomes
  CLint scaled at 1 µM: < 45.7 mL/min/kg
In vitro [9]; mouse liver microsomes
  CLint scaled at 1 µM: < 67.2 mL/min/kg
[3]; [25]
  pIC50: 7.80
In vivo
  bioavailability: 27%
[10]
  in vivo mouse CLb: 102 mL/min/kg
  in vivo mouse CLu: 300 mL/min/kg
In vitro [11]
  Papp A→B: 14 ×10⁻⁶ cm/s
[4]; one biological replicate
  pIC50: 4.33
In vitro [12]; microsomes
  CLint scaled at 1 µM: < 13.4 mL/min/kg
In vitro [12]; pooled human liver microsomes
  CLint scaled at 1 µM: < 19.7 mL/min/kg

## CS(=O)(=O)c1cccc(-c2ccnc3ccc(N4CCC(O)CC4)nc23)c1 [Compound 21, 1-[8-(3-Methylsulfonylphenyl)-1,5-naphthyridin-2-yl]piperidin-4-ol]
Physchem [6]
  logD at 3 h: 2.27
[7]; [17]
  pIC50: 7.07
[7]; [18]
  pIC50: 7.85
[7]; [19]
  pIC50: 6.88
[7]; [20]
  pIC50: 7.16
[7]; [21]
  pIC50: 7.27
[7]; [22]
  pIC50: 7.66
[7]; [23]
  pIC50: 7.98
[7]; [24]
  pIC50: 8.01
Physchem [8]; aqueous solution
  solubility thermodynamic at 20 h: 150 µM (≈ 57.5 µg/mL)
In vitro [9]; microsomes
  CLint scaled at 1 µM: < 45.7 mL/min/kg
In vitro [9]; mouse liver microsomes
  CLint scaled at 1 µM: < 60.1 mL/min/kg
HepG2 cells; Homo sapiens, HepG2; read-out: HepG2 IC50
  pIC50: < 4.30
[3]; [25]
  pIC50: 7.49
In vivo
  bioavailability: 37%
[10]
  in vivo mouse CLb: 80 mL/min/kg
  in vivo mouse CLu: 533 mL/min/kg
In vitro [11]
  Papp A→B: 18 ×10⁻⁶ cm/s
[4]; one biological replicate
  pIC50: 4.31
[5]
  pIC50: 5.10
In vitro [12]; microsomes
  CLint scaled at 1 µM: < 13.4 mL/min/kg
In vitro [12]; pooled human liver microsomes
  CLint scaled at 1 µM: < 17.6 mL/min/kg

## CS(=O)(=O)c1cccc(-c2ccnc3ccc(N4CCCC(C(N)=O)C4)nc23)c1 (centres unmarked) [Compound 22, 1-[8-(3-Methylsulfonylphenyl)-1,5-naphthyridin-2-yl]piperidine-3-carboxamide]
HsPI4Kβ
  HsPI4Kβ SI: 56
Physchem [8]
  solubility thermodynamic at 20 h: 10 µM (≈ 4.1 µg/mL)
[3]; [25]
  pIC50: 7.17
[3]; [26]
  pIC50: 7.17
HsMINK1
  HsMINK1 SI: > 4000
HsPI3Kα
  HsPI3Kα SI: 60
[4]; one biological replicate
  pIC50: < 4.30
HsMAP4K4
  HsMAP4K4 SI: > 4000

## CNC(=O)Cc1cccc(-c2ccc3nccc(-c4ccc(C(C)(C)O)nc4)c3n2)c1 [Compound 27, 2-[3-[8-[6-(2-Hydroxypropan-2-yl)pyridin-3-yl]-1,5-naphthyridin-2-yl]phenyl]-N-methylacetamide]
HepG2 cells; [14]
  pIC50: 5.22
[2]; [15]
  pIC50: 7.09
[2]; K1, read-out: PfK1 IC50
  pIC50: 7.09
[3]; [16]
  pIC50: 7.29
[3]; NF54, read-out: PfNF54 IC50
  pIC50: 7.29
[3]; NF54, read-out: free IC50
  pIC50: 7.40
[4]
  pIC50: 4.51
[5]
  pIC50: 4.42

## CS(=O)(=O)c1cccc(-c2ccc3nccc(-c4ccc(C(=O)N5CCC(O)C5)cc4)c3n2)c1 (centres unmarked) [Compound 37, (3-Hydroxypyrrolidin-1-yl)-[4-[6-(3-methylsulfonylphenyl)-1,5-naphthyridin-4-yl]phenyl]methanone]
Physchem [6]
  logD at 3 h: 1.92
Physchem [8]; aqueous solution
  solubility thermodynamic at 20 h: 60 µM (≈ 28.4 µg/mL)
In vitro [9]; microsomes
  CLint scaled at 1 µM: < 45.7 mL/min/kg
In vitro [9]; mouse liver microsomes
  CLint scaled at 1 µM: < 93.2 mL/min/kg
[2]; K1, pLDH assay, 72 h, read-out: Pf ABS IC50 K1
  pIC50: 7.02
[3]; [25]
  pIC50: 7.49
[3]; [26]
  pIC50: 7.49
[13]
  IC50 shift against PI4K mutant lines relative to parent Dd2: showed IC50 shifts
In vivo
  bioavailability: 11%
[10]
  in vivo mouse CLb: 181 mL/min/kg
  in vivo mouse CLu: 362 mL/min/kg
In vitro [11]
  Papp A→B: 1.5 ×10⁻⁶ cm/s
  efflux ratio: 32
[4]; one biological replicate
  pIC50: 4.62
In vitro [12]; microsomes
  CLint scaled at 1 µM: < 13.4 mL/min/kg
In vitro [12]; pooled human liver microsomes
  CLint scaled at 1 µM: < 27.3 mL/min/kg

## CNC(=O)c1ccc(-c2cnc3cnc(C(=O)N(C)c4ccc(Cl)cc4)cn23)cc1 [KDU691]
[1]
  pIC50: 7.15 to 7.57
P. vivax PI4Kβ (PvPI4K)
  pIC50: 8.80
HsPI4K
  pIC50: 5.10
